Assay results taken from patent US20100168054A1, “Functionalized Beta 1,6 Glucosamine Disaccharides and Process for Their Preparation” (OM PHARMA, priority 2006, published 2010).
“Also recorded” adds a separate entry of the source.

Experiments:
[1] = tested on: human peripheral blood mononuclear cells (PBMC); assay: IL-6 secretion by human PBMC (ELISA); type: cell-based; conditions: for IL6: 24 h; for IL-6 secretion (in words): 1, 5, 20 μg/ml
Description: (§1) Peripheral blood from healthy donors (Centre de transfusion, Hôpital Universitaire, Geneva) was centrifuged to get the buffy coat. The buffy coat was mixed with Hanks' balanced saline solution (HBSS, Sigma, Buchs, Switzerland), layered over Ficoll Paque Plus (Amersham Pharmacia) to 1.077 g/mL and centrifuged (2800 rpm, 20° C., 25 min). Cells harvested from the interphase were washed twice in HBSS at 800 rpm for 15 min at room temperature and the pelleted cells were resuspended in HBSS. The cell counts were performed using a Neubauer cell. All cell cultures were performed in RPMI-1640 medium supplemented with penicillin (100 U/mL), streptomycin (100 μg/mL), L-glutamine (2 mmol/L) and 10% fetal calf serum (FCS), all obtained from Sigma. For in vitro stimulation, the cells were cultured at a concentration of 1×10^6 viable cells/well.
(§2) PBMC were incubated at 37° C. and under 5% CO2 atmosphere with the controls (see below) and with the products of the invention at 1, 5, and 20 μg/mL for IL-6, and at 0.2, 2, and 20 μg/mL for TNF-α secretion. Medium: RPMI alone.
(§3) The surpernatants of the cultures were harvested after 24 h and the concentration of IL-6 and TNF-α were measured by an enzyme-linked immunosorbent assay (ELISA) (Human IL-6 and TNF-α ELISA Set, BD OptEIA, San Diego, USA), according to the manufacturer instructions. The detection limits were 10 and 8 pg/mL respectively.
PBMC are incubated at 37° C. and under 5% CO2 atmosphere with the products of the invention.
The supernatants of the cultures are harvested after 24 h and the concentration of IL-6 was measured by an enzyme-linked immunosorbent assay (ELISA) (Human IL-6 ELISA Set, BD OptEIA, San Diego, USA), according to the manufacturer instructions. The detection limit was 10 pg/mL.

TLR2 = target: T1, TLR2 (Homo sapiens, UniProt O60603); assay: HEK-TLR2 IL-8 secretion; type: cell-based; conditions: for IL-8 secretion, mean: 24 h
T1 construct: host or cells: HEK293
Excerpt: The HEK293 cell line was chosen for its null or low basal expression of the TLR genes. These cells enable efficient monitoring of TLR activity using ELISA analysis such as IL-8 titration or reporter-based systems that monitor TLR-induced NF-κB activation. HEK-TLR2 cells (Invivogen, Toulouse, France) are engineered HEK293 cells stably transfected with multiple genes from the TLR2 pathway that include TLR2 and genes participating in the recognition or involved in the signaling cascade. These cells secrete IL-8 after TLR2 stimulation. The experiments were performed according to manufacturers' instructions. Briefly, 2×10^4 cells/well (200 ul RPMI) are incubated at 37° C. during 3 days (5% CO2). The medium is removed, and 90 ul RPMi+5% FCS is added to the wells Then the agonists and controls are added (10 ul/well). The cells return to the incubator for 24 hours. The supernatants are collected and the IL-8 ELISA is performed according to manufacturer's instructions

[2] = tested on: THP1-Blue cells (express naturally both TLR2 and TLR4); assay: THP1-Blue NF-κB/AP-1-inducible SEAP reporter; type: cell-based, human; conditions: for Optical density read at 625 nm, mean of duplicates: 48 h
Description: A first series of experiment was performed on THP-1 cells, which express naturally both TLR2 and TLR4. THP-1 cells are human peripheral blood monocytic cells. Monocytes play a key role in innate immunity and express most TLRs at various levels. As for the primary cells, THP-1 cells activate NF-κB and other transcription factors in response to TLR ligands
To facilitate analysis of TLR response in monocytes, InvivoGen (Toulouse, France) provides THP-1 clones stably transfected with an NF-κB-inducible reporter system, called THP1-Blue™. THP-1 Blue cells were stably transfected with a reporter plasmid expressing a secreted embryonic alkaline phosphatase (SEAP) gene under the control of a promoter inducible by several transcription factors such as NF-κB and AP-1. Upon TLR stimulation, THP1-Blue™ cells activate transcription factors and subsequently the secretion of SEAP which is easily detectable when using QUANTI-Blue\u2122a medium that turns purple/blue in the presence of SEAP.
The cells were stimulated with the controls and compounds of the invention according to manufacturer's instructions. Results: Increased OD at 625 Nm after 48 Hours: The results for the controls (negative=LPS K12CD25 ultrapure, a TLR4 agonist; and PAM3CSK4=positive, a TLR2 agonist) are provided in the table below. The results (expressed as OD of arbitrary units) show the mean values (from duplicate measures) of Optical density read at 625 nm, 48 h after stimulation at 37° C. with the controls (up to 1000 ng/ml): […]

[3] = tested on: human peripheral blood mononuclear cells (PBMC); assay: TNF-α secretion by human PBMC (ELISA); type: cell-based; conditions: for TNF-α: 24 h; for TNF-α induction (in words): 0.2, 2, 20 μg/ml
Description: as §1, §2, §3

T1 sequence (O60603 21-784): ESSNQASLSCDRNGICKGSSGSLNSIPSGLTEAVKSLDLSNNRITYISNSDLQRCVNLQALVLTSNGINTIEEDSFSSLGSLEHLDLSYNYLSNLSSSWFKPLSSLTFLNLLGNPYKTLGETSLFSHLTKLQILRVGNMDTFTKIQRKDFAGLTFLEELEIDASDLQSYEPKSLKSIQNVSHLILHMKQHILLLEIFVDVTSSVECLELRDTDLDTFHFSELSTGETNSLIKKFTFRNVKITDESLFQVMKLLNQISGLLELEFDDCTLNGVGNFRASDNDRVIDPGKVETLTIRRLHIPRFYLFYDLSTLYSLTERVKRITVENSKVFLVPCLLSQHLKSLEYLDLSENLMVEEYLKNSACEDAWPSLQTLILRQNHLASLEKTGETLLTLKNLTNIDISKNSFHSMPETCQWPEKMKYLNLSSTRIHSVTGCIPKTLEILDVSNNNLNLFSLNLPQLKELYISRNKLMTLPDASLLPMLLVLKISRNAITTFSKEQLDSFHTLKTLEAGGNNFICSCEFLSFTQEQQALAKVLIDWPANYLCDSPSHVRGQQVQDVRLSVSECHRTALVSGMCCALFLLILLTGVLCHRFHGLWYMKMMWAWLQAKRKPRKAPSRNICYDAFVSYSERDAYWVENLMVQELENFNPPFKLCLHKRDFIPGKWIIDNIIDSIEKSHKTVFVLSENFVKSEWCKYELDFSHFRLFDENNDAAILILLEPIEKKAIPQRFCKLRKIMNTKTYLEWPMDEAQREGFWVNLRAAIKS

IL-8 secretion, mean (TLR2; 14 ng/ml) [pg/mL]	IL-8 secretion, mean (TLR2; 41 ng/ml) [pg/mL]	IL-8 secretion, mean (TLR2; 124 ng/ml) [pg/mL]	IL-8 secretion, mean (TLR2; 370 ng/ml) [pg/mL]	IL-8 secretion, mean (TLR2; 1111 ng/ml) [pg/mL]	IL-8 secretion, mean (TLR2; 3333 ng/ml) [pg/mL]	IL-8 secretion, mean (TLR2; 10000 ng/ml) [pg/mL]	SMILES	IL6 ([1]; 1 μg/ml) [pg/mL]	IL6 ([1]; 5 μg/ml) [pg/mL]	IL6 ([1]; 20 μg/ml) [pg/mL]	IL-6 secretion (in words) [1]	activation of THP-1 cells (in words) [2]	Optical density read at 625 nm, mean of duplicates ([2]; 14 ng/ml) [OD]	Optical density read at 625 nm, mean of duplicates ([2]; 41 ng/ml) [OD]	Optical density read at 625 nm, mean of duplicates ([2]; 124 ng/ml) [OD]	Optical density read at 625 nm, mean of duplicates ([2]; 370 ng/ml) [OD]	Optical density read at 625 nm, mean of duplicates ([2]; 1111 ng/ml) [OD]	TNF-α ([3]; 0.2 μg/ml) [pg/mL]	TNF-α ([3]; 2 μg/ml) [pg/mL]	TNF-α ([3]; 20 μg/ml) [pg/mL]	also measured
0.07	0.09	0.15	0.12	0.15	0.19	0.27	CCCCCCCCCCCC(=O)O[C@H](CCCCCCCCCCC)CC(=O)N[C@H]1[C@H](OC[C@H]2O[C@H](O)[C@H](NC(=O)C[C@H](O)CCCCCCCCCCC)[C@@H](O)[C@@H]2O)O[C@H](CO)[C@@H](OP(=O)(O)O)[C@@H]1O [compound 16, 2-Deoxy-6-O-[2-deoxy-4-O-(dihydroxyphosphoryl)-2-[(R)-3-dodecanoyloxytetradecanoylamino]-β-D-glucopyranosy]-2-[(R)-3-hydroxytetradecanoylamino]-α-D-glucopyranose]	81.1	473.3	1348.2	able to induce IL-6 secretion	weaker	0.15	0.13	0.15	0.16	0.17	0.69	49	1705	IL-6 induced ([1]; up to, doses to 20 μg/ml): up to 1348 μg/ml; Optical density read at 625 nm, mean of duplicates ([2]; 3333 ng/ml): 0.18 OD; Optical density read at 625 nm, mean of duplicates ([2]; 10000 ng/ml): 0.22 OD; TNF-α induction (in words) [3]: induced high levels of TNF-α
0.12	0.18	0.23	0.31	0.68	1.66	3.64	CCCCCCCCCCCC(=O)O[C@H](CCCCCCCCCCC)CC(=O)N[C@H]1[C@H](OC[C@H]2O[C@H](OCCOP(=O)(O)O)[C@H](NC(=O)C[C@H](O)CCCCCCCCCCC)[C@@H](O)[C@@H]2O)O[C@H](CO)[C@@H](OP(=O)(O)O)[C@@H]1O [compound 33, 2-(Phosphonooxy)ethyl-2-Deoxy-6-O-[2-deoxy-4-O-(dihydroxyphosphoryl)-2-[(R)-3-dodecanoyloxytetradecanoylamino]-β-D-glucopyranosyl]-2-[(R)-3-hydroxytetradecanoylamino]-α-D-glucopyranoside]	–	–	–	–	weaker	0.13	0.12	0.13	0.16	0.19	8.0	8.3	21	activation of IL-8 secretion via TLR2 (in words) (TLR2; HEK-TLR2): able to activate IL-8 secretion via TLR2; Optical density read at 625 nm, mean of duplicates ([2]; 3333 ng/ml): 0.25 OD; Optical density read at 625 nm, mean of duplicates ([2]; 10000 ng/ml): 0.35 OD
–	–	–	–	–	–	–	CCCCCCCCCCCC(=O)O[C@H](CCCCCCCCCCC)CC(=O)NC1C(OCC2OC(OP(=O)(O)O)C(NC(=O)C[C@H](O)CCCCCCCCCCC)C(O)C2O)OC(CO)C(OP(=O)(O)O)C1O (stereo partly drawn) [compound 1b, 2-Deoxy-6-O-[2-deoxy-4-O-(dihydroxyphosphoryl)-2-[(R)-3-dodecanoyloxytetradecanoylamino]-β-D-glucopyranosyl]-2-[(R)-3-hydroxytetradecanoylamino]-α-D-glucopyranosyl dihydrogenophosphate]	20.2	57.1	225.5	higher levels of IL-6; also recorded: able to induce IL-6 secretion	–	–	–	–	–	–	37	117	1105	TNF-α induction (in words) [3]: induced high levels of TNF-α

SMILES	IL-8 secretion, mean (TLR2; 14 ng/ml) [pg/mL]	IL-8 secretion, mean (TLR2; 41 ng/ml) [pg/mL]	IL-8 secretion, mean (TLR2; 124 ng/ml) [pg/mL]	IL-8 secretion, mean (TLR2; 370 ng/ml) [pg/mL]	IL-8 secretion, mean (TLR2; 1111 ng/ml) [pg/mL]	IL-8 secretion, mean (TLR2; 3333 ng/ml) [pg/mL]	IL-8 secretion, mean (TLR2; 10000 ng/ml) [pg/mL]	IL6 ([1]; 1 μg/ml) [pg/mL]	IL6 ([1]; 5 μg/ml) [pg/mL]	IL6 ([1]; 20 μg/ml) [pg/mL]	IL-6 secretion (in words) [1]	activation of THP-1 cells (in words) [2]	Optical density read at 625 nm, mean of duplicates ([2]; 14 ng/ml) [OD]	Optical density read at 625 nm, mean of duplicates ([2]; 41 ng/ml) [OD]	Optical density read at 625 nm, mean of duplicates ([2]; 124 ng/ml) [OD]	Optical density read at 625 nm, mean of duplicates ([2]; 370 ng/ml) [OD]	Optical density read at 625 nm, mean of duplicates ([2]; 1111 ng/ml) [OD]	TNF-α ([3]; 0.2 μg/ml) [pg/mL]	TNF-α ([3]; 2 μg/ml) [pg/mL]	TNF-α ([3]; 20 μg/ml) [pg/mL]	also measured
CCCCCCCCCCCC(=O)O[C@H](CCCCCCCCCCC)CC(=O)N[C@H]1[C@H](OC[C@H]2O[C@H](OCC(O)CO)[C@H](NC(=O)C[C@H](O)CCCCCCCCCCC)[C@@H](O)[C@@H]2O)O[C@H](CO)[C@@H](OP(=O)(O)O)[C@@H]1O (stereo partly drawn) [compound 19, 2,3-Dihydroxypropyl-2-Deoxy-6-O-[2-deoxy-4-O-(dihydroxyphosphoryl)-2-[(R)-3-dodecanoyloxytetradecanoylamino]-β-D-glucopyranosyl]-2-[(R)-3-hydroxytetradecanoylamino]-α-D-glucopyranoside]	0.06	0.15	0.16	0.20	0.27	0.37	0.62	44.5	95.9	199.1	able to induce IL-6 secretion	good activators of THP-1 cells	0.15	0.13	0.17	0.24	0.37	9.2	5.1	11.2	Optical density read at 625 nm, mean of duplicates ([2]; 3333 ng/ml): 0.58 OD; Optical density read at 625 nm, mean of duplicates ([2]; 10000 ng/ml): 0.77 OD
